Test results: patent US11001586B2, “Alkyl pyrrolopyrimidine analogs and methods of making and using same” (The University of North Carolina at Chapel Hill, priority 2016, dated 2021)

Legend:
[1] = molecular target: Mer tyrosine kinase (Homo sapiens (Human), UniProt Q12866); test: Evaluation of activity against Mer tyrosine kinase; type: biochemical
[2] = molecular target: Tyro3 tyrosine kinase (Homo sapiens (Human), UniProt Q06418); test: Evaluation of activity against Tyro3 tyrosine kinase; type: biochemical
Chain of Tyro3 tyrosine kinase (Q06418 41-890): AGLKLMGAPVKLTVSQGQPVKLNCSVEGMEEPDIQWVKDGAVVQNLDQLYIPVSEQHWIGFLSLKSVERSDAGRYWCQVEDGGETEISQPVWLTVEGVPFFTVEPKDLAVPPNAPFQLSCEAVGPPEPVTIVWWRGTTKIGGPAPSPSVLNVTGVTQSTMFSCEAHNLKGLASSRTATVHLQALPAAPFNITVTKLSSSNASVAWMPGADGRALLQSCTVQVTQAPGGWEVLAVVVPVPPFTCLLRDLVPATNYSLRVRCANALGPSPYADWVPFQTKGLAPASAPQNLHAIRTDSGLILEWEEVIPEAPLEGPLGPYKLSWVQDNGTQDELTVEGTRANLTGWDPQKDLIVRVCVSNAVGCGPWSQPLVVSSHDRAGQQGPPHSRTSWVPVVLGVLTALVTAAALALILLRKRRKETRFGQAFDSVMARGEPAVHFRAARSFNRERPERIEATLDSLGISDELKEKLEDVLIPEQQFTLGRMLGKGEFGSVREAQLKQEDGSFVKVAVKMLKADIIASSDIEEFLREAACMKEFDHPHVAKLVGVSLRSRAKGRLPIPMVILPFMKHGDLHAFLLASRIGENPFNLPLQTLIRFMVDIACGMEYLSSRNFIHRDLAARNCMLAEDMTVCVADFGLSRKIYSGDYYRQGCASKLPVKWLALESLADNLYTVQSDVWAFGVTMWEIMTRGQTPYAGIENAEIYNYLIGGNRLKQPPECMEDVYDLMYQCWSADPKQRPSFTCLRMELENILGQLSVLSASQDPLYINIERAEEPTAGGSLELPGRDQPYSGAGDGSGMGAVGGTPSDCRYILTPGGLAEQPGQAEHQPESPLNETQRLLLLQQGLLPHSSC

Chain of Mer tyrosine kinase (Q12866 21-999): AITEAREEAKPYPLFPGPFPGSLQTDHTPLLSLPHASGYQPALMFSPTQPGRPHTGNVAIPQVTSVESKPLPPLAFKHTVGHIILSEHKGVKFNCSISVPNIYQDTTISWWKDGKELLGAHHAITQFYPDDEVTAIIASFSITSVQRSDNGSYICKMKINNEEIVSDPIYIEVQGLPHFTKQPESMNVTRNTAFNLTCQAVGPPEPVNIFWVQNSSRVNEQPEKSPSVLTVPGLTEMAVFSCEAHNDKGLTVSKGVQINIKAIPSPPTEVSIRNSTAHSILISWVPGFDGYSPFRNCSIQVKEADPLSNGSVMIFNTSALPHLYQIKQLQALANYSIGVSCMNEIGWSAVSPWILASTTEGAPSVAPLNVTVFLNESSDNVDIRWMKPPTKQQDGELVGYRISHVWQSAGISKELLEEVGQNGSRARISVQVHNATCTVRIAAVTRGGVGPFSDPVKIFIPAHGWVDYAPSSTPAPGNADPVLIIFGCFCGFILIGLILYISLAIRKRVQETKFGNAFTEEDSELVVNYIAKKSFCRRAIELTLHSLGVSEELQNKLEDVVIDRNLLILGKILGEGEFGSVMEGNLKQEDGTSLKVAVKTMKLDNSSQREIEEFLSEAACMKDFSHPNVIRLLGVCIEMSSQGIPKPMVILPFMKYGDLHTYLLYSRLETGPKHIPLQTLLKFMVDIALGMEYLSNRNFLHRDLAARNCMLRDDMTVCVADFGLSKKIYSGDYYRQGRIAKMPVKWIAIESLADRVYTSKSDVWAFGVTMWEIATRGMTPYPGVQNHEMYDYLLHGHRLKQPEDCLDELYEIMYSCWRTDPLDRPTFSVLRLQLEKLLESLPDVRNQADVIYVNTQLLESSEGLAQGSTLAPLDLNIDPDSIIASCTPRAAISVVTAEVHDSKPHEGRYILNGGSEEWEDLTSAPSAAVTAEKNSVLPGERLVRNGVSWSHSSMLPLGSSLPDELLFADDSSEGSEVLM

Row | SMILES | IC50 [1] [nM] | IC50 [2] [nM]
1 | CCC[C@H](C)Nc1ncc2c(C3CCN(S(=O)(=O)C4CCN(C)CC4)CC3)cn([C@H]3CC[C@H](O)CC3)c2n1 [compound 1, (1S,4R)-4-(5-(1-((1-methylpiperidin-4-yl)sulfonyl)piperidin-4-yl)-2-(((S)-pentan-2-yl)amino)-7H-pyrrolo[2,3-d]pyrimidin-7-yl)cyclohexan-1-ol] | < 10 | 10 to 100
2 | CCC[C@H](C)Nc1ncc2c(C3CCN(S(=O)(=O)C4CCNCC4)CC3)cn([C@H]3CC[C@H](O)CC3)c2n1 [compound 3, (1S,4R)-4-(2-(((S)-pentan-2-yl)amino)-5-(1-(piperidin-4-ylsulfonyl)piperidin-4-yl)-7H-pyrrolo[2,3-d]pyrimidin-7-yl)cyclohexan-1-ol] | < 10 | 10 to 100
3 | CCC[C@H](C)Nc1ncc2c(C3CCN(S(=O)(=O)CCOC)CC3)cn([C@H]3CC[C@H](O)CC3)c2n1 [compound 4, (1S,4R)-4-(5-(1-((2-methoxyethyl)sulfonyl)piperidin-4-yl)-2-(((S)-pentan-2-yl)amino)-7H-pyrrolo[2,3-d]pyrimidin-7-yl)cyclohexan-1-ol] | < 10 | 100 to 1000
4 | CCC[C@H](C)Nc1ncc2c(C3CCN(C(=O)C4CCNCC4)CC3)cn([C@H]3CC[C@H](O)CC3)c2n1 [compound 8, (4-(7-((1R,4S)-4-hydroxycyclohexyl)-2-(((S)-pentan-2-yl)amino)-7H-pyrrolo[2,3-d]pyrimidin-5-yl)piperidin-1-yl)(piperidin-4-yl)methanone] | < 10 | 10 to 100
5 | CCC[C@H](C)Nc1ncc2c(C3CCN(C(=O)CCOC)CC3)cn([C@H]3CC[C@H](O)CC3)c2n1 [compound 9, 1-(4-(7-((1R,4S)-4-hydroxycyclohexyl)-2-(((S)-pentan-2-yl)amino)-7H-pyrrolo[2,3-d]pyrimidin-5-yl)piperidin-1-yl)-3-methoxypropan-1-one] | < 10 | 100 to 1000
6 | CCCCNc1ncc2c(C3CC4CCC(C3)N4)cn([C@H]3CC[C@H](O)CC3)c2n1 (stereo partly drawn) [compound 12, (1R,4R)-4-(5-((1R,3S,5S)-8-azabicyclo[3.2.1]octan-3-yl)-2-(butylamino)-7H-pyrrolo[2,3-d]pyrimidin-7-yl)cyclohexan-1-ol] | – | 1000 to 30000
7 | CCC[C@H](C)Nc1ncc2c(C3CCN(C(=O)C4CNC4)CC3)cn([C@H]3CC[C@H](O)CC3)c2n1 [compound 13, Azetidin-3-yl(4-(7-((1R,4S)-4-hydroxycyclohexyl)-2-(((S)-pentan-2-yl)amino)-7H-pyrrolo[2,3-d]pyrimidin-5-yl)piperidin-1-yl)methanone] | < 10 | 10 to 100
8 | CCC[C@H](C)Nc1ncc2c(C3CCN(C(=O)C4CN(C)C4)CC3)cn([C@H]3CC[C@H](O)CC3)c2n1 [compound 14, (4-(7-((1R,4S)-4-hydroxycyclohexyl)-2-(((S)-pentan-2-yl)amino)-7H-pyrrolo[2,3-d]pyrimidin-5-yl)piperidin-1-yl)(1-methylazetidin-3-yl)methanone] | < 10 | 10 to 100
9 | CCC[C@H](C)Nc1ncc2c(C3CCN(C(=O)C4CCCN4)CC3)cn([C@H]3CC[C@H](O)CC3)c2n1 (stereo partly drawn) [compound 15, 7-((1R,4S)-4-hydroxycyclohexyl)-2-(((S)-pentan-2-yl)amino)-5-(1-prolylpiperidin-4-yl)-7H-pyrrolo[2,3-d]pyrimidine] | < 10 | 10 to 100
10 | CCC[C@H](C)Nc1ncc2c(C3CCN(C(=O)C4CCCN4C)CC3)cn([C@H]3CC[C@H](O)CC3)c2n1 (stereo partly drawn) [compound 16, 7-((1R,4S)-4-hydroxycyclohexyl)-5-(1-(methylprolyl)piperidin-4-yl)-2-(((S)-pentan-2-yl)amino)-7H-pyrrolo[2,3-d]pyrimidine] | < 10 | 10 to 100
11 | CCC[C@H](C)Nc1ncc2c(C3CCN(C(=O)C4CCNC4)CC3)cn([C@H]3CC[C@H](O)CC3)c2n1 (stereo partly drawn) [compound 17, (4-(7-((1R,4S)-4-hydroxycyclohexyl)-2-(((S)-pentan-2-yl)amino)-7H-pyrrolo[2,3-d]pyrimidin-5-yl)piperidin-1-yl)(pyrrolidin-3-yl)methanone] | < 10 | 10 to 100
